Experiment [1] addresses T1, Histamine H3 receptor (Homo sapiens, UniProt Q9Y5N1). Briefly: Inhibition of human H3 receptor at 10 uM incubated for 90 mins by scintillation counting method relative to control.
Experiment [2] concerns the target Cholinesterase (Equus caballus) (UniProt P81908). Briefly: Inhibition of equine BChE at 100 uM using acetylthiocholine chloride as substrate preincubated for 15 mins followed by substrate addition and measured after 30 mins by DTNB reagent based Ellman's method relative to control. To be noted: time 45.0 min.
Experiment [3] addresses T2, D(3) dopamine receptor (Homo sapiens, UniProt P35462). Briefly: Inhibition of human D3 receptor expressed in CHO cells at 10 uM by scintillation counting method relative to control. It counts as cell-based.
Experiment [4] concerns the target T1, Histamine H3 receptor. Briefly: Binding affinity to human H3 receptor assessed as inhibition constant incubated for 90 mins by scintillation counting method.
Experiment [5] deals with T2, D(3) dopamine receptor. Briefly: Binding affinity to human D3 receptor expressed in CHO cells assessed as inhibition constant by scintillation counting method. It counts as cell-based.
In the next experiment the target is Cholinesterase (Equus caballus, UniProt P81908). The experiment is described as follows: Inhibition of equine BChE using acetylthiocholine chloride as substrate preincubated for 15 mins followed by substrate addition and measured after 30 mins by DTNB reagent based Ellman's method. (Ellman's reagent forms a yellow product with free thiols.)
Sequence of Cholinesterase (P81908 whole entry): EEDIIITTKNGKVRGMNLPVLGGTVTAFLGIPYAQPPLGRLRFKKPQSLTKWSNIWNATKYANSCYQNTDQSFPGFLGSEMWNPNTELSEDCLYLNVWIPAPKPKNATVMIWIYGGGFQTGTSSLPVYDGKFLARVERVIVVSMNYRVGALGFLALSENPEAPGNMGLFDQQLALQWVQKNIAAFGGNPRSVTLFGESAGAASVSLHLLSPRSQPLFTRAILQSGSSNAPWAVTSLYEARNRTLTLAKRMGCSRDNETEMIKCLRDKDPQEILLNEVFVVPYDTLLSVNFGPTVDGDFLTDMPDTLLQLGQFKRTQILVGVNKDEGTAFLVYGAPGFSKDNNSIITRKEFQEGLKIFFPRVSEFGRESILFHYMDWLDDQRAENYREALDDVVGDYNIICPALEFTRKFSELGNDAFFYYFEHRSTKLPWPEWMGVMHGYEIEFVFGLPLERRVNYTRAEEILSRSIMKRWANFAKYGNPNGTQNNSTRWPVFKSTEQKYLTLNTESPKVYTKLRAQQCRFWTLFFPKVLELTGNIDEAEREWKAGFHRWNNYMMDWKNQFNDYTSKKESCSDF
A further experiment addresses Acetylcholinesterase (Electrophorus electricus, UniProt O42275). Briefly: Inhibition of electrical eel AChE using acetylthiocholine chloride as substrate preincubated for 15 mins followed by substrate addition and measured after 30 mins by DTNB reagent based Ellman's method.
In experiment [6] the target is T1, Histamine H3 receptor. Briefly: Inhibition of human H3 receptor at 1 uM incubated for 90 mins by scintillation counting method relative to control.
Experiment [7] concerns the target T2, D(3) dopamine receptor. Briefly: Inhibition of human D3 receptor expressed in CHO cells at 1 uM by scintillation counting method relative to control. The experiment is classed as cell-based.
In experiment [8] the target is T1, Histamine H3 receptor. The experiment is described as follows: Inhibition of human H3 receptor incubated for 90 mins by scintillation counting method relative to control.
The target of experiment [9] is T2, D(3) dopamine receptor. Briefly: Inhibition of human D3 receptor expressed in CHO cells assessed as inhibition constant by scintillation counting method. It counts as cell-based.

In general, inhibition refers to the percentage by which the read-out fell short of the control. A low value points to a response near the control. Broadly, the Ki is a measure of affinity in units of concentration, obtained from inhibition or displacement. For orientation: IC50 means the midpoint of a concentration-inhibition curve. Higher therefore signals a need for much substance.

T2 sequence (P35462 whole entry): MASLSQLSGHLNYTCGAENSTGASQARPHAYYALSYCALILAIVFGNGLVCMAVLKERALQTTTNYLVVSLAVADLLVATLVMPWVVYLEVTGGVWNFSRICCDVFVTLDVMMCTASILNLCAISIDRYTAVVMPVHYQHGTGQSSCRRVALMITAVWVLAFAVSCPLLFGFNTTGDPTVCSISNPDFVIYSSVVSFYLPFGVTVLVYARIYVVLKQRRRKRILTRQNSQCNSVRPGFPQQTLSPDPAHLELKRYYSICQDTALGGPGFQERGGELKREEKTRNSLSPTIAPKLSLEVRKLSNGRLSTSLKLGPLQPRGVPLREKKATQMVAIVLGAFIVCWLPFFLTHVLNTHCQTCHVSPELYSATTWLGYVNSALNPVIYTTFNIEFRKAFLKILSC
Sequence of Cholinesterase (Equus caballus) (P81908 whole entry): as the sequence (P81908 whole entry) above
Sequence of Acetylcholinesterase (O42275 whole entry): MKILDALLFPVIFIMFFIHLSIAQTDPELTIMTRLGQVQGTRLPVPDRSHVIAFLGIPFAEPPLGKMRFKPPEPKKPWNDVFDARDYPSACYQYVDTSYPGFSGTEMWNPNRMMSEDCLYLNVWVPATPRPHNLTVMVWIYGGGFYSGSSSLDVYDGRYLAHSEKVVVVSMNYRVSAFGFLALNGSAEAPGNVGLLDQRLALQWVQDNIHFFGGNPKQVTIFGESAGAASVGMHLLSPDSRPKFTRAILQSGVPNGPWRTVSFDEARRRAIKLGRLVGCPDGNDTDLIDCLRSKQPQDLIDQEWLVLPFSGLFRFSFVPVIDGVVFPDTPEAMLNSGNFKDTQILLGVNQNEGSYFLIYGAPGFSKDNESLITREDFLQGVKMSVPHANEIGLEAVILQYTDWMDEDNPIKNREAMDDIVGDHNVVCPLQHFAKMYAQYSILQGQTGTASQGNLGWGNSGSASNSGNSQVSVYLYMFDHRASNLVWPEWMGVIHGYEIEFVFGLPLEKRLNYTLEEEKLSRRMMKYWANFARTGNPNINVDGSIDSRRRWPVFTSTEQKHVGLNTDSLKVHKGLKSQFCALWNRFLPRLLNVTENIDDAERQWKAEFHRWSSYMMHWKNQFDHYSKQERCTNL
T1 sequence (Q9Y5N1 whole entry): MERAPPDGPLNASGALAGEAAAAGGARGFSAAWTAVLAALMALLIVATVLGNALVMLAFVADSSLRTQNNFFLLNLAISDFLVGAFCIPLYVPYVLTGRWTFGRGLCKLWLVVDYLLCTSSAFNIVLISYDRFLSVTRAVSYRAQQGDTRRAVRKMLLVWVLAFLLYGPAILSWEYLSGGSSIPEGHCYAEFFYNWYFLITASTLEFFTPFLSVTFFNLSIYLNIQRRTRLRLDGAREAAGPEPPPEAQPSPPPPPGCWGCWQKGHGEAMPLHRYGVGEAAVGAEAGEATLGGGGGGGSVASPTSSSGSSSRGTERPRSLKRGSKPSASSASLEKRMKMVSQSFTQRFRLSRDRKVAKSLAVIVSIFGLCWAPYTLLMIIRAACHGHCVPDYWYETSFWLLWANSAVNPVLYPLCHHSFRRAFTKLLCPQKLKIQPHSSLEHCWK

For `O=C(OCCCN1CCN(c2ccccc2)CC1)c1ccc2ccccc2c1`, the inhibition stood at 40.8% at Histamine H3 receptor [1], 16.6% in experiment [2] and 65.3% at D(3) dopamine receptor [3].

In the case of `CN1CCN(CCCOC(=O)c2cc3ccccc3o2)CC1`, the Ki on Histamine H3 receptor [4] is 3.3 µM; on D(3) dopamine receptor [5], greater than 0.01 µM. Besides, the inhibition was determined as 82.3% against Histamine H3 receptor [1], 31.7% in experiment [2] and 9% on D(3) dopamine receptor [3].

Consider `CN1CCN(CCCOC(=O)c2cccc3ccccc23)CC1`, for which the Ki was 3.7 µM at Histamine H3 receptor [4] and greater than 0.01 µM on D(3) dopamine receptor [5]. In addition, the figures for the inhibition (against Histamine H3 receptor [1]; in experiment [2]; against D(3) dopamine receptor [3]) were 83.8%, 50.6% and 71.5%, respectively.

On to `O=C(OCCN1CCN(c2ccccc2)CC1)c1ccc2ccccc2c1`, for which the values for the inhibition (against Histamine H3 receptor [1]; in experiment [2]; at D(3) dopamine receptor [3]) were 61.5%, 36.5% and 32.8%, respectively.

Turning to `O=C(OCCCN1CCN(c2ccccc2)CC1)c1cc2ccccc2o1`, the inhibition in [2] was 46.8%.

As to `CN1CCN(CCOC(=O)c2ccc3ccccc3c2)CC1`, the Ki on Histamine H3 receptor [4] is 2.2 µM; at D(3) dopamine receptor [5], greater than 0.01 µM. Also, the inhibition on Histamine H3 receptor [1] was 78.2%; in [2] it was 74.8%; against D(3) dopamine receptor [3], 53.7%. This compound also returned an IC50 on Cholinesterase of 57.5 µM.

`CC(C)N1CCN(CCCCOc2ccc3c(c2)NC(=O)CC3)CC1`: the IC50 came out at 1.6 µM at Acetylcholinesterase and 16.7 µM against Cholinesterase.

With `CN1CCN(CCOc2ccc3ccccc3c2)CC1`, the inhibition is 39.3% at Histamine H3 receptor [1], 48.4% in experiment [2] and 15.2% at D(3) dopamine receptor [3].

In turn, `c1ccc(N2CCN(CCCOc3cccc4ccccc34)CC2)cc1` returned an inhibition in experiment [2] of 22.7%.

Take `CN1CCN(CCOC(=O)c2cccc3ccccc23)CC1`: the inhibition was determined as 69% against Histamine H3 receptor [1], 38.3% in experiment [2] and 49.7% at D(3) dopamine receptor [3].

`O=C(OCCCN1CCN(c2ccccc2)CC1)c1cccc2ccccc12` gave an inhibition in experiment [2] of less than 10%.

As to `c1ccc(N2CCN(CCCOc3ccc4ccccc4c3)CC2)cc1`, the figures for the inhibition (at Histamine H3 receptor [6]; at D(3) dopamine receptor [7]; in experiment [2]) were 36.8%, 80.5% and 65.7%, respectively. For the same compound, the results for the inhibitory constant (Ki) on Histamine H3 receptor [4] and at D(3) dopamine receptor [5] were greater than 10 µM and 0.00034 µM, respectively. Besides, inhibition against Cholinesterase was half-maximal at 53.7 µM (IC50).

As for `CN1CCN(CCCOc2cccc3ccccc23)CC1`, the inhibition against Histamine H3 receptor [1] stood at 70%; in experiment [2], 60.2%; against D(3) dopamine receptor [3] it was 47.8%. The compound also returned an IC50 on Cholinesterase of 78.5 µM.

`Clc1ccc(CCCOCCCN2CCCCC2)cc1` came in with an inhibition at Histamine H3 receptor [8] of 99.8%.

Turning to `CN1CCN(CCCOc2ccc3ccccc3c2)CC1`, the Ki at Histamine H3 receptor [4] was determined as 2.8 µM; at D(3) dopamine receptor [5], 0.0007 µM. Besides, the inhibition against Histamine H3 receptor [1] was 80.5%; in [2], 70%; against D(3) dopamine receptor [3], 22.8%. The same compound came in with an IC50 against Cholinesterase of 26.3 µM.

As for `c1ccc2c(OCCN3CCN(c4ccncc4)CC3)cccc2c1`, the inhibition at Histamine H3 receptor [6] stood at 54%; against D(3) dopamine receptor [7] it was 37.7%; in [2], 65.4%. The IC50 turned out to be 53.7 µM on Acetylcholinesterase and 40.7 µM against Cholinesterase.

Consider `CN1CCN(CCCOC(=O)c2ccc3ccccc3c2)CC1`, for which the Ki at Histamine H3 receptor [4] worked out at 1.1 µM; on D(3) dopamine receptor [5], 0.0031 µM. Moreover, the inhibition was 96.3% at Histamine H3 receptor [1], 85.1% in experiment [2] and 77.7% at D(3) dopamine receptor [3]. Besides, the IC50 amounted to 97.8 µM on Acetylcholinesterase and 43.7 µM at Cholinesterase.

For the compound `CN(C)C(=O)Oc1cccc([N+](C)(C)C)c1` [NEOSTIGMINE], the IC50 against Cholinesterase is 0.16 µM. Besides, the inhibition in experiment [2] is greater than 95%.

Take `O=C(NCCCN1CCN(c2ccncc2)CC1)c1cc2ccccc2o1`: the inhibition against Histamine H3 receptor [6] was determined as 80.5%; at D(3) dopamine receptor [7] it was 23.5%; in experiment [2], 54.5%. Further, the Ki was 0.91 µM on Histamine H3 receptor [4] and greater than 0.01 µM at D(3) dopamine receptor [5]. Besides, at Cholinesterase, the IC50 was 85.1 µM.

Turning to `CN1CCN(CCOc2cccc3ccccc23)CC1`, the inhibition against Histamine H3 receptor [1] came out at 21.3%; in [2], 64.9%; against D(3) dopamine receptor [3] it was 33.5%. The compound also showed a concentration for half-maximal inhibition (IC50) against Cholinesterase of 58.9 µM.

`c1ccc(N2CCN(CCOc3cccc4ccccc34)CC2)cc1`: the figures for the inhibition (at Histamine H3 receptor [1]; in [2]; at D(3) dopamine receptor [3]) were 39.8%, 26% and 34.5%, respectively.

Regarding `O=C(OCCN1CCN(c2ccccc2)CC1)c1cccc2ccccc12`, the inhibition at Histamine H3 receptor [1] amounted to 71.3%; in experiment [2], 24.1%; on D(3) dopamine receptor [3], 52.8%.

Take `O=C(OCCCN1CCN(c2ccncc2)CC1)c1cc2ccccc2o1`: the inhibition was found to be 88.8% on Histamine H3 receptor [6], 18% against D(3) dopamine receptor [7] and 49.9% in [2]. For the same compound, the Ki on Histamine H3 receptor [4] was 0.27 µM; at D(3) dopamine receptor [5] it was greater than 0.01 µM. In addition, the IC50 at Acetylcholinesterase is 57.2 µM; on Cholinesterase it was 97.7 µM.

As to `O=C(NCCCCN1CCN(c2ccccc2)CC1)c1ccc2ccccc2c1`, the Ki at D(3) dopamine receptor [9] was found to be 0.00092 µM.

As for `c1ccc(N2CCN(CCOc3ccc4ccccc4c3)CC2)cc1`, the inhibition was 23.3% against Histamine H3 receptor [6], 45% on D(3) dopamine receptor [7] and 17.5% in [2].

Source of the values: ChEMBL document CHEMBL5236644, “Multitargeting approaches to cognitive impairment: Synthesis of aryl-alkylpiperazines and assessment at cholinesterases, histamine H3 and dopamine D3 receptors” (Bioorg Med Chem, 2023).
